Data from patent publication US20230048901A1, “SOLID ORAL FORMULATION OF UTIDELONE” (Beijing Biostar Pharmaceuticals Co., Ltd., priority 2020, published 2023).

Experiment: Solubility of Utidelone in water and organic solvents
Format: physicochemical
Description: The saturated solubility in water is less than 1 μg/ml, so it is difficult to develop into an oral formulation with suitable bioavailability. At present, the marketed epothilone antitumor drugs such as Utidelone injection and Ixabepilone injection etc., all of which use non-aqueous solvents such as ethanol and polyoxyl castor oil as solvents, are diluted with sodium chloride injection for administration by intravenous infusion. Since polyoxyl castor oil is a strong allergenic substance, antiallergic treatment must be given before intravenous administration, which reduces the compliance of this type of drug in clinical use, increases the adverse reactions of patients, and limits its clinical application.

## C/C1=C/CC(/C(C)=C/c2csc(C)n2)OC(=O)C[C@H](O)C(C)(C)C(=O)[C@H](C)[C@@H](O)[C@@H](C)CCC1 (stereo partly drawn) [Utidelone, 4,8-dihydroxy-5,5,7,9,13-pentamethyl-16-[1-methyl-2-(2-methyl-thiazole-4-yl)-vinyl]-hexadecoxetane-13-en-2,6-one lactone]
ethanol, methanol, ethyl acetate, chloroform
  solubility in organic solvents: easily soluble
water
  solubility in water: insoluble in water
water, read-out: saturated solubility in water
  solubility: < 1 µg/mL
